The values below come from US12673975B2, “Cyclic peptide, cell scaffold material, cell separating material, and medium” (FUJIFILM Corporation, priority 2019, dated 2026).

Data set [1] can be described thus: Evaluation of molecule stability (alkali treatment, residual rate by LC/MS). The format is physicochemical. To be noted: for Performance evaluation: Stability (residual rate of cyclic peptide after alkali treatment): 500 μM peptide aqueous solution plus equivalent of 1 M sodium hydroxide, 15° C., 3 hours, LC/MS peak area; for Stability (molecule stability, residual rate of the cyclic peptide rank): alkali treatment, residual rate by LC/MS. Put shortly:
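500 μM aqueous cyclic peptide mixed with an equal volume of 1 M NaOH and held 3 h at 15 °C. Residual rate is total LC/MS peak area after treatment relative to untreated (100%), using a C18 column, pH 3 ammonium formate/acetonitrile gradient, 45 °C, ESI±.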

The target in a further data set is human integrin αvβ5 (Homo sapiens, UniProt P06756+P18084). In words: Evaluation of integrin binding property (surface plasmon resonance, Biacore 3000, immobilized cyclic peptide). In outline:
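SPR with cyclic peptide amine-coupled via EDC/NHS to a CM5 chip, blank channel as reference. Integrin αvβ5 at 30, 100, 300 and 1,000 nM injected 10 min at 25 °C in HEPES buffer pH 7.4 with 5 mM MgCl2, 30 min buffer flow, EDTA regeneration; Kd from reference-subtracted signals, graded by category.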
On the technique in general: Surface plasmon resonance follows binding to a sensor surface in real time, without labels.

Setting [2] is: SPR, 25° C., HEPES buffer with 5 mM magnesium chloride, integrin 30-1,000 nM, read-out: Performance evaluation: Binding activity (dissociation constant between the cyclic peptide and human integrin αvβ5).
[3] abbreviates: surface plasmon resonance, immobilized cyclic peptide, human integrin αvβ5, read-out: Binding activity (integrin binding property, dissociation constant rank).

Like-named read-outs stand apart in the source and are kept apart here. Starred links: 1 amine or outer side, 2 acyl side, 3 side chain; linkers in the order of their positions; H or OH if unused. Positions of bridges follow the written chain, without caps; N, C: chain ends. Non-standard residues stand in square brackets, D forms with d. Residues, ends and D or L forms follow the SMILES beside them. hCys = N[C@@H](CCS)C(=O)O; Dab = NCC[C@H](N)C(=O)O; X2 = O=C(C[*:1])[*:2]

Chain of human integrin αvβ5 (P06756 31-1048): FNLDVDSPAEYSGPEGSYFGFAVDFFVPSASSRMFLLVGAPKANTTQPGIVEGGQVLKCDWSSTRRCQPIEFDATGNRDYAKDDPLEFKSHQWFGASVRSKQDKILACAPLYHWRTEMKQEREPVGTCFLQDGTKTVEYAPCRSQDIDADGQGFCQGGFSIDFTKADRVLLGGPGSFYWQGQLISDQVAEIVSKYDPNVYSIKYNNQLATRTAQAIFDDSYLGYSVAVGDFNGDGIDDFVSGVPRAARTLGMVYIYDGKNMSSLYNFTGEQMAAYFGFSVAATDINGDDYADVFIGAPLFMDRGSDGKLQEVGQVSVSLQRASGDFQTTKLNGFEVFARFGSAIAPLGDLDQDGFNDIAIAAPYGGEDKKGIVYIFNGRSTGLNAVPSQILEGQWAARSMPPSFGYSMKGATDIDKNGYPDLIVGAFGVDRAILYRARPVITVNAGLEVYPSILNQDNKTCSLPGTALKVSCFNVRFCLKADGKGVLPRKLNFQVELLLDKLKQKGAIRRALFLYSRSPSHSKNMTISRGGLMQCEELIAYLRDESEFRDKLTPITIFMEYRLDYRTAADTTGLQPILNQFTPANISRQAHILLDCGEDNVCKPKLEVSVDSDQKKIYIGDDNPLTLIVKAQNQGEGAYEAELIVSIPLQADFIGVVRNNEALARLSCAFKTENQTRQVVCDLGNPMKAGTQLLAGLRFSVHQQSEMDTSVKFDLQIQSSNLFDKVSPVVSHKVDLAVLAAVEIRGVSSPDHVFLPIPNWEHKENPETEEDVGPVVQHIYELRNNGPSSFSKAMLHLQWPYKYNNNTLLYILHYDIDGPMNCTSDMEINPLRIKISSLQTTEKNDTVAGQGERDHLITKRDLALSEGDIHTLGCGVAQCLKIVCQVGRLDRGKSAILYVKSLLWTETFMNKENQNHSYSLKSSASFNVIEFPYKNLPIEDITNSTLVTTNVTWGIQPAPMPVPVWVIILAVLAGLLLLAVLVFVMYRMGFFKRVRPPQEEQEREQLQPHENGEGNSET
Chain of human integrin αvβ5 (P18084 24-799): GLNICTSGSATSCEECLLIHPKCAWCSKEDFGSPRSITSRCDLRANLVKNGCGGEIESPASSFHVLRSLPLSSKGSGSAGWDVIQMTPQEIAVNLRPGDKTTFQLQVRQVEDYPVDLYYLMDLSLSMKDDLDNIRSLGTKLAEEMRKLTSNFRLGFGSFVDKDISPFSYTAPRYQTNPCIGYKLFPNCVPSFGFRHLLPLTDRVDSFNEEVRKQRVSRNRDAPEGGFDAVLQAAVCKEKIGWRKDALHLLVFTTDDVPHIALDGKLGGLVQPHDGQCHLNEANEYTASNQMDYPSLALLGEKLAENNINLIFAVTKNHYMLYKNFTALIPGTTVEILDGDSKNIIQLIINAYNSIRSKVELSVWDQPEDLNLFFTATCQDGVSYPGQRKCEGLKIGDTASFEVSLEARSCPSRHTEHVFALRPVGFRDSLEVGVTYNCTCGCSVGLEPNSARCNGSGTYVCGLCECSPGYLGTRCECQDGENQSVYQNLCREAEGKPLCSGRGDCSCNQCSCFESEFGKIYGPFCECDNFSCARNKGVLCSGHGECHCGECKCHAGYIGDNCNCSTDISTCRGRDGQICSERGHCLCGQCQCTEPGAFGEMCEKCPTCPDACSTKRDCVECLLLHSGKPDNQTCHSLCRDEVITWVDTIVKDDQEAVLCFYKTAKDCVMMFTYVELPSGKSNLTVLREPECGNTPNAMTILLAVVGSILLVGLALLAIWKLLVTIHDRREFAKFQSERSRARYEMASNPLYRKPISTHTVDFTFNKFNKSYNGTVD

As to `CC(C)C[C@@H]1NC(=O)[C@@H](NC(=O)CNC(=O)[C@H](CCCCN)NC(=O)[C@H](CCCCN)NC(=O)[C@@H](N)CCCCN)CCSCC(=O)NCC[C@@H](C(=O)N[C@@H](C)C(=O)O)NC(=O)[C@H](CCCNC(=N)N)NC(=O)[C@H](Cc2ccccc2)NC(=O)[C@H](CC(N)=O)NC(=O)[C@H](CC(=O)O)NC(=O)CNC(=O)[C@H](CCCNC(=N)N)NC(=O)[C@@H]2CCCN2C1=O` [Cyclic peptide 27, KKKG-(Hcy)-LPRGDNFR(Dab(acetyl))A] (H-KKKG[hCys]LPRGDNFR[Dab]A-OH; linker 5-14 via X2), the “Performance evaluation: Stability (residual rate of cyclic peptide after alkali treatment)” value in data set [1] is on record as “A (The residual rate of the cyclic peptide is 70% or more.)”. The Kd at human integrin αvβ5 (setting [2]) was below 50 nM.
On the same counts, the results for `CC[C@H](C)[C@@H]1NC(=O)[C@@H](NC(=O)[C@H](CCCCN)NC(=O)[C@H](CCCCN)NC(=O)[C@@H](N)CCCCN)CCSCC(=O)NCC[C@@H](C(=O)O)NC(=O)[C@H](CCCNC(=N)N)NC(=O)[C@H](Cc2ccccc2)NC(=O)[C@H]([C@@H](C)O)NC(=O)[C@H](CC(=O)O)NC(=O)CNC(=O)[C@H](CCCNC(=N)N)NC(=O)[C@@H]2CCCN2C1=O` [Cyclic peptide 61, KKK-(Hcy)-IPRGDTFR(Dab(acetyl))] (H-KKK[hCys]IPRGDTFR[Dab]-OH; linker 4-13 via X2) are “A (The residual rate of the cyclic peptide is 70% or more.)” and below 50 nM.
On the same counts, the results for `CC[C@H](C)[C@@H]1NC(=O)[C@@H](NC(=O)CNC(=O)[C@H](CCCCN)NC(=O)[C@H](CCCCN)NC(=O)[C@@H](N)CCCCN)CCSCC(=O)NCC[C@@H](C(=O)N[C@@H](C)C(=O)O)NC(=O)[C@H](C)NC(=O)[C@H](Cc2ccccc2)NC(=O)[C@H]([C@@H](C)O)NC(=O)[C@H](CC(=O)O)NC(=O)CNC(=O)[C@H](CCCNC(=N)N)NC(=O)[C@@H]2CCCN2C1=O` [Cyclic peptide 86, KKKG-(Hcy)-IPRGDTFA(Dab(acetyl))A] (H-KKKG[hCys]IPRGDTFA[Dab]A-OH; linker 5-14 via X2) are “A (The residual rate of the cyclic peptide is 70% or more.)” and below 50 nM.
In the case of `CC(C)[C@@H]1NC(=O)[C@@H](NC(=O)[C@H](C)NC(=O)[C@H](CCCCN)NC(=O)[C@H](CCCCN)NC(=O)[C@@H](N)CCCCN)CCSCC(=O)NCC[C@@H](C(=O)NCC(=O)O)NC(=O)[C@H](C)NC(=O)[C@H](Cc2ccccc2)NC(=O)[C@H]([C@@H](C)O)NC(=O)[C@H](CC(=O)O)NC(=O)CNC(=O)[C@H](CCCNC(=N)N)NC(=O)[C@@H]2CCCN2C1=O` [Cyclic peptide 107, KKKA-(Hcy)-VPRGDTFA(Dab(acetyl))G] (H-KKKA[hCys]VPRGDTFA[Dab]G-OH; linker 5-14 via X2), in data set [1], the “Stability (molecule stability, residual rate of the cyclic peptide rank)” value is given as “A (The residual rate of the cyclic peptide is 70% or more.)”. The Kd on human integrin αvβ5 (setting [3]) is below 50 nM.
On to `CC[C@H](C)[C@@H]1NC(=O)[C@H](C)NC(=O)[C@@H](NC(=O)CNC(=O)[C@H](CCCCN)NC(=O)[C@H](CCCCN)NC(=O)[C@@H](N)CCCCN)CCSCC(=O)NCC[C@@H](C(=O)N[C@@H](C)C(=O)O)NC(=O)[C@H](C)NC(=O)[C@H](CCCNC(=N)N)NC(=O)[C@H](Cc2ccccc2)NC(=O)[C@H]([C@@H](C)O)NC(=O)[C@H](CC(=O)O)NC(=O)CNC(=O)[C@H](CCCNC(=N)N)NC(=O)[C@@H]2CCCN2C1=O` [Cyclic peptide 67, KKKG-(Hcy)-AIPRGDTFRA(Dab(acetyl))A] (H-KKKG[hCys]AIPRGDTFRA[Dab]A-OH; linker 5-16 via X2), for which the “Performance evaluation: Stability (residual rate of cyclic peptide after alkali treatment)” value in data set [1] is given as “A (The residual rate of the cyclic peptide is 70% or more.)”. In addition, the Kd on human integrin αvβ5 (setting [2]) was below 50 nM.
As for `CC(C)[C@@H]1NC(=O)[C@@H](NC(=O)[C@H](C)NC(=O)[C@H](CCCCN)NC(=O)[C@H](CCCCN)NC(=O)[C@@H](N)CCCCN)CCSCC(=O)NCC[C@@H](C(=O)N[C@@H](C)C(=O)O)NC(=O)[C@H](C)NC(=O)[C@H](Cc2ccccc2)NC(=O)[C@H]([C@@H](C)O)NC(=O)[C@H](CC(=O)O)NC(=O)CNC(=O)[C@H](CCCNC(=N)N)NC(=O)[C@@H]2CCCN2C1=O` [Cyclic peptide 108, KKKA-(Hcy)-VPRGDTFA(Dab(acetyl))A] (H-KKKA[hCys]VPRGDTFA[Dab]A-OH; linker 5-14 via X2), the “Stability (molecule stability, residual rate of the cyclic peptide rank)” value in data set [1] is reported as “A (The residual rate of the cyclic peptide is 70% or more.)”. Also, the Kd on human integrin αvβ5 (setting [3]) was below 50 nM.
With `CC[C@H](C)[C@@H]1NC(=O)[C@H](C)NC(=O)[C@H](C)NC(=O)[C@@H](NC(=O)[C@H](CCCCN)NC(=O)[C@H](CCCCN)NC(=O)[C@@H](N)CCCCN)CCSCC(=O)NCC[C@@H](C(=O)N[C@@H](C)C(=O)O)NC(=O)[C@H](CCCNC(=N)N)NC(=O)[C@H](Cc2ccccc2)NC(=O)[C@H](CC(N)=O)NC(=O)[C@H](CC(=O)O)NC(=O)CNC(=O)[C@H](CCCNC(=N)N)NC(=O)[C@@H]2CCCN2C1=O` [Cyclic peptide 18, KKK-(Hcy)-AAIPRGDNFR(Dab(acetyl))A] (H-KKK[hCys]AAIPRGDNFR[Dab]A-OH; linker 4-15 via X2), in data set [1], the “Performance evaluation: Stability (residual rate of cyclic peptide after alkali treatment)” value is “A (The residual rate of the cyclic peptide is 70% or more.)”. Further, the Kd at human integrin αvβ5 (setting [2]) was 50 to 100 nM.
On the same counts, the results for `CC(C)[C@@H]1NC(=O)[C@H](CC(=O)O)NC(=O)CNC(=O)[C@H](CCCNC(=N)N)NC(=O)[C@@H]2CCCN2C(=O)[C@H](C(C)C)NC(=O)[C@@H](NC(=O)[C@H](CCCCN)NC(=O)[C@H](CCCCN)NC(=O)[C@@H](N)CCCCN)CCSCC(=O)NCC[C@@H](C(=O)O)NC(=O)[C@H](Cc2ccccc2)NC1=O` [Cyclic peptide 66, KKK-(Hcy)-VPRGDVF(Dab(acetyl))] (H-KKK[hCys]VPRGDVF[Dab]-OH; linker 4-12 via X2) are “A (The residual rate of the cyclic peptide is 70% or more.)” and below 50 nM.
Taken in the same sequence, the figures for `CC[C@H](C)[C@@H]1NC(=O)[C@@H](NC(=O)[C@H](C)NC(=O)[C@H](CCCCN)NC(=O)[C@H](CCCCN)NC(=O)[C@@H](N)CCCCN)CCSCC(=O)NCC[C@@H](C(=O)NCC(=O)O)NC(=O)[C@H](C)NC(=O)[C@H](Cc2ccccc2)NC(=O)[C@H](CO)NC(=O)[C@H](CC(=O)O)NC(=O)CNC(=O)[C@H](CCCNC(=N)N)NC(=O)[C@@H]2CCCN2C1=O` [Cyclic peptide 93, KKKA-(Hcy)-IPRGDSFA(Dab(acetyl))G] (H-KKKA[hCys]IPRGDSFA[Dab]G-OH; linker 5-14 via X2) were “A (The residual rate of the cyclic peptide is 70% or more.)” and below 50 nM.
Taken in the same sequence, the figures for `CC(C)[C@@H]1NC(=O)[C@@H](NC(=O)CNC(=O)[C@H](CCCCN)NC(=O)[C@H](CCCCN)NC(=O)[C@@H](N)CCCCN)CCSCC(=O)NCC[C@@H](C(=O)N[C@@H](C)C(=O)O)NC(=O)[C@H](CCCNC(=N)N)NC(=O)[C@H](Cc2ccccc2)NC(=O)[C@H]([C@@H](C)O)NC(=O)[C@H](CC(=O)O)NC(=O)CNC(=O)[C@H](CCCNC(=N)N)NC(=O)[C@@H]2CCCN2C1=O` [Cyclic peptide 70, KKKG-(Hcy)-VPRGDTFR(Dab(acetyl))A] (H-KKKG[hCys]VPRGDTFR[Dab]A-OH; linker 5-14 via X2) were “A (The residual rate of the cyclic peptide is 70% or more.)” and below 50 nM.
On to `CC(C)[C@@H]1NC(=O)[C@@H](NC(=O)[C@H](C)NC(=O)[C@H](CCCCN)NC(=O)[C@H](CCCCN)NC(=O)[C@@H](N)CCCCN)CCSCC(=O)NCC[C@@H](C(=O)N[C@@H](C)C(=O)O)NC(=O)[C@H](CCCNC(=N)N)NC(=O)[C@H](Cc2ccccc2)NC(=O)[C@H]([C@@H](C)O)NC(=O)[C@H](CC(=O)O)NC(=O)CNC(=O)[C@H](CCCNC(=N)N)NC(=O)[C@H]([C@@H](C)O)NC1=O` [Cyclic peptide 89, KKKA-(Hcy)-VTRGDTFR(Dab(acetyl))A] (H-KKKA[hCys]VTRGDTFR[Dab]A-OH; linker 5-14 via X2), for which the “Performance evaluation: Stability (residual rate of cyclic peptide after alkali treatment)” value in data set [1] was “A (The residual rate of the cyclic peptide is 70% or more.)”. Also, the Kd on human integrin αvβ5 (setting [2]) was below 50 nM.
Taken in the same sequence, the figures for `C[C@H](NC(=O)[C@H](CCCCN)NC(=O)[C@H](CCCCN)NC(=O)[C@@H](N)CCCCN)C(=O)N[C@H]1CCSCC(=O)NCC[C@@H](C(=O)N[C@@H](CC(=O)O)C(=O)O)NC(=O)[C@H](CCC(=O)O)NC(=O)[C@H](Cc2ccc(O)cc2)NC(=O)[C@H](CC(N)=O)NC(=O)[C@H](CC(=O)O)NC(=O)CNC(=O)[C@H](CCCNC(=N)N)NC(=O)[C@@H]2CCCN2C(=O)[C@H](CCC(=O)O)NC1=O` [Cyclic peptide 36, KKKA-(Hcy)-EPRGDNYE(Dab(acetyl))D] (H-KKKA[hCys]EPRGDNYE[Dab]D-OH; linker 5-14 via X2) were “A (The residual rate of the cyclic peptide is 70% or more.)” and 50 to 100 nM.
Take `N=C(N)NCCC[C@@H]1NC(=O)[C@H](Cc2ccc(O)cc2)NC(=O)[C@H](CC(N)=O)NC(=O)[C@H](CC(=O)O)NC(=O)CNC(=O)[C@H](CCCNC(=N)N)NC(=O)[C@@H]2CCCN2C(=O)[C@H](CCC(=O)O)NC(=O)[C@@H](NC(=O)[C@H](CCCCN)NC(=O)[C@H](CCCCN)NC(=O)[C@@H](N)CCCCN)CCSCC(=O)NCC[C@@H](C(N)=O)NC1=O` [Cyclic peptide 49, KKK-(Hcy)-EPRGDNYR(Dab(acetyl))] (H-KKK[hCys]EPRGDNYR[Dab]-NH2; linker 4-13 via X2): the “Performance evaluation: Stability (residual rate of cyclic peptide after alkali treatment)” value in data set [1] was “A (The residual rate of the cyclic peptide is 70% or more.)”. In addition, the Kd on human integrin αvβ5 (setting [2]) is 50 to 100 nM.
